Laboratory results: patent US9950004B2, “Treatment and prevention of learning and memory disorders” (priority 2012, dated 2018)

What was measured:
capillary circulation = assay: Laser Doppler study of creams in five human subjects (second Example 7); format: in vivo; details: positive control formulation containing 0.1% methyl nicotinate
Excerpt: This example illustrates delivery of nitric oxide formulations to five human subjects, using procedures and formulations similar to those discussed in Example 6. Each person served as their own control for the testing. A Moor Instruments Laser Doppler was used to determine circulation. […] The formulations used produce positive, almost immediate results when applied to the skin which, in these studies, was manifested by vasodilatation of the cutaneous vascular system.
For each subject, the following creams were applied: a negative control formulation (containing no NO), 0.010 gram of a 10,000 ppm NO formulation, 0.020 gram of a 10,000 ppm NO formulation, and a positive control formulation containing 0.1% methyl nicotinate. The formulations were prepared using procedures similar to those discussed in Example 1.

[1] = test system: micro-capillary blood flow to skin; assay: Laser Doppler study, closed Hilltop chamber on forearm, three human female subjects (Example 6); format: in vivo; details: 1/10% in alcohol applied to the skin
Excerpt: The formulation used in these studies contained nitric oxide dispersed in a lipid matrix. […] Nitric oxide is a very rapid acting molecule, and these studies used a system that employed laser Doppler with a covered chamber. The formulation was placed into the chamber and then attached to the skin by an adhesive layer on the covering. This provided a stable measuring device as determined by multiple normal evaluations of the capillary blood flow without treatment of nitric oxide.
A known positive control, methyl nicotinate, was applied to the skin at a concentration of 1/10% in alcohol. […] The vascular dynamics are such that when the blood vessels dilate physical parameters follow Bernoulli's law. […] The laser Doppler device accurately measured these parameters.
In these studies, the participants were healthy females aged 30 to 55 years. They were in good health as determined by the medical history and were not taking any prescription medications. All study participants read and signed the informed consent statement prior to any study procedures being performed. […]
A Moor Instruments DRT4 Laser Doppler Blood Flow Monitor (Devon, England) was used in these studies. The laser Doppler technique measured blood flow in the microcapillaries of the skin that are close to the skin surface and the blood flow in underlying arterioles and venules that help to regulate skin temperature. […]

## COC(=O)c1cccnc1 [methyl nicotinate]
Capillary circulation
  vasodilatation: vasodilatation was observed
[1]
  vasodilator response (positive control): rapid response typical of the vasodilator
